Reference: patent publication US11673916B2, “Neuroprotective peptides and methods of their use” (University of Pittsburgh—Of the Commonwealth System of …, priority 2020, dated 2023)

Test system: cortical neurons
Experiment: Cell toxicity assay (LDH release) after excitotoxic TBOA treatment
Type: cell-based, rat
Conditions: 3 μM peptide, TBOA 60 μM, LDH 24 h after initial TBOA treatment, mean±SEM (FIG. 4D)
Experimental: Cortical neurons were pre-treated with vehicle, TAT-DP-2 (3 μM), or TAT-Sc-2 (3 μM) for 2 hours in HEPES-buffered minimal essential media with 0.01% bovine serum albumin (MHB). Next, cells with the same peptide concentrations along with either vehicle or 60 μM DL-threo-β-benzyloxyaspartic acid (TBOA) for 6 hours. Each well was washed two times with either 0.5 mL of vehicle or 60 μM TBOA and neurons were incubated overnight. Twenty-four hours following initial TBOA treatment, media was collected for lactate dehydrogenase assays (Sigma Aldrich, St. Louis, Mo.). Relative toxicity was quantified by calculating the ratio of LDH concentration in TBOA-treated over non-TBOA-treated wells. […]
With evidence that TAT-DP-2-mediated declustering prevents enhancement of pro-apoptotic Kv2.1 potassium currents following injury, the neuroprotective actions of TAT-DP-2 in cortical neurons in vitro were next tested. […] Neurotoxicity was assessed by the release of lactate dehydrogenase (LDH) into the culture medium, as described previously (Aras, et al., Curr Protoc Neurosci. 44: 7.18.1-7.18.15, 2008). […] Based on these findings, the potential neuroprotective actions of TAT-DP-2 were evaluated in an in vivo model of ischemia-reperfusion injury, where a substantial contribution of Kv2.1-enabled neuronal cell death has been previously observed (Yeh et al., J Neurosci. 37: 5648-5658, 2017).

Sequence | mean relative toxicity ([LDH]TBOA/[LDH]Veh)
YGRKKRRQRRRDFSSIST [TAT-Sc-2, TAT-linked scramble control peptide] | 1.57±0.15
YGRKKRRQRRRSIDSFTS [TAT-DP-2, TAT-linked declustering peptide 2] | 1.01±0.15
